pIC50, pKi: −log10 of the molar value.
Legend:
[1] = molecular target: D2 (h) (Homo sapiens, UniProt P14416); test: Binding to membrane receptors of central neuromediators of human origin: D2; conditions: D2 (h) receptor binding
Excerpt: (§1) The results of this study of binding to these various membrane receptors of central neuromediators of human origin are presented in Table 1.

[2] = molecular target: T1, M1 (h) (Homo sapiens, UniProt P11229); test: Binding to membrane receptors of central neuromediators of human origin: M1; conditions: M1 (h) receptor binding
T1 sequence (P11229 1-460): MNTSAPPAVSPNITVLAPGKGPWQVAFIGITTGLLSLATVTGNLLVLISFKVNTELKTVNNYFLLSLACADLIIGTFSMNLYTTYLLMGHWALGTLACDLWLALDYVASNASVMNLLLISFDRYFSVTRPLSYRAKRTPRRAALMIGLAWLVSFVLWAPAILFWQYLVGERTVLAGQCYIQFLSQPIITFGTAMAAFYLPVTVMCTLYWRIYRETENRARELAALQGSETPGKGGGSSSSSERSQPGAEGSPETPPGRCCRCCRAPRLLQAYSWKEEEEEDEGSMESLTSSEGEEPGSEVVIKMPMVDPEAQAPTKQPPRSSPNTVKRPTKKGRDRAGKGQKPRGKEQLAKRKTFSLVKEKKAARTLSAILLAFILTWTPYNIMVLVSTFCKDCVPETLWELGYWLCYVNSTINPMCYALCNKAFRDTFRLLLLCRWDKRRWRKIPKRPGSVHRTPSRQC
Excerpt: as §1

[3] = molecular target: T2, M2 (h) (Homo sapiens, UniProt P08172); test: Binding to membrane receptors of central neuromediators of human origin: M2; conditions: M2 (h) receptor binding
T2 sequence (P08172 1-466): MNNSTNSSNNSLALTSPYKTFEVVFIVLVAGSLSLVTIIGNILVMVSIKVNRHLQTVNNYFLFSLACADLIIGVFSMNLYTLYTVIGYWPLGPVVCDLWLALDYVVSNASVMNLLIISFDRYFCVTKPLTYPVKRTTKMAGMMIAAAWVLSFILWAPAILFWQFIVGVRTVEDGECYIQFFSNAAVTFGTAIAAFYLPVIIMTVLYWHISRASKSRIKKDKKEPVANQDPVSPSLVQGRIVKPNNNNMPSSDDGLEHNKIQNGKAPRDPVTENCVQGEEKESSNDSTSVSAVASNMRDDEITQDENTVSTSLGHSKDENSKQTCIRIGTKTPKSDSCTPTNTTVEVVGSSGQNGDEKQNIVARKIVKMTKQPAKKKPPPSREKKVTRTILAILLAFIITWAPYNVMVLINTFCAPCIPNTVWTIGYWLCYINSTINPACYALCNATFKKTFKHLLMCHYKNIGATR
Excerpt: as §1

[4] = molecular target: M3 (h) (Homo sapiens, UniProt P20309); test: Binding to membrane receptors of central neuromediators of human origin: M3; conditions: M3 (h) receptor binding
Sequence of M3 (h) (P20309 whole entry): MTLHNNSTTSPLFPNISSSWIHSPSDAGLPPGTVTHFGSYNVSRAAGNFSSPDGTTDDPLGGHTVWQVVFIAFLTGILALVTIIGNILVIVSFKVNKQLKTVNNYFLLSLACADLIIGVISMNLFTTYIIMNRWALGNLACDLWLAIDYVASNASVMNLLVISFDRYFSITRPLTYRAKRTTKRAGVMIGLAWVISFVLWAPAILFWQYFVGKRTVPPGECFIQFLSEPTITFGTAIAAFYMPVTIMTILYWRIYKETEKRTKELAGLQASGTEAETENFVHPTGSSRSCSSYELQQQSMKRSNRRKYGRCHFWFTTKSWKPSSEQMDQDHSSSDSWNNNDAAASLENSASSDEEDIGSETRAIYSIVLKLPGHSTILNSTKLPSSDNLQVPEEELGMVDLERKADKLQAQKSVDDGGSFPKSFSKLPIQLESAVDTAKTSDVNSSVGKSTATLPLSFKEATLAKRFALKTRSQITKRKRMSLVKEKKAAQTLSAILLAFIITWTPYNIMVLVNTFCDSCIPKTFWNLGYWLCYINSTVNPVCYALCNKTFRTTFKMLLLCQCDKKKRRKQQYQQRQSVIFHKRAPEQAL
Excerpt: as §1

[5] = molecular target: T3, 5-HT1A (h) (Homo sapiens, UniProt P08908); test: Binding to membrane receptors of central neuromediators of human origin: 5-HT1A; conditions: 5-HT1A (h) receptor binding
T3 sequence (P08908 1-422): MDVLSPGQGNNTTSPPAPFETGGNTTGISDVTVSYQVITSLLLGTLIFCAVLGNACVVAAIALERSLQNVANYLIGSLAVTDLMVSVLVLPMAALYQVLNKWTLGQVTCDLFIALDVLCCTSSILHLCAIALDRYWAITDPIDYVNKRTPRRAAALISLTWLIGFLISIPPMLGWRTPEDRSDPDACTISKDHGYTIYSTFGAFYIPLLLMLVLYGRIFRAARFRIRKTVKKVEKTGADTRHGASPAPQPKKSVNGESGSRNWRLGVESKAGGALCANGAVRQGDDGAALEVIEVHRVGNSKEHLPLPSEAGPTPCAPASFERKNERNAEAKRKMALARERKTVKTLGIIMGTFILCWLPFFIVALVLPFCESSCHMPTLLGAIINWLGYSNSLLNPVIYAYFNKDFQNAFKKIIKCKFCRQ
Excerpt: as §1

[6] = molecular target: 5-HT2A (h) (Homo sapiens, UniProt P28223); test: Binding to membrane receptors of central neuromediators of human origin: 5-HT2A; conditions: 5-HT2A (h) receptor binding
Sequence of 5-HT2A (h) (P28223 whole entry): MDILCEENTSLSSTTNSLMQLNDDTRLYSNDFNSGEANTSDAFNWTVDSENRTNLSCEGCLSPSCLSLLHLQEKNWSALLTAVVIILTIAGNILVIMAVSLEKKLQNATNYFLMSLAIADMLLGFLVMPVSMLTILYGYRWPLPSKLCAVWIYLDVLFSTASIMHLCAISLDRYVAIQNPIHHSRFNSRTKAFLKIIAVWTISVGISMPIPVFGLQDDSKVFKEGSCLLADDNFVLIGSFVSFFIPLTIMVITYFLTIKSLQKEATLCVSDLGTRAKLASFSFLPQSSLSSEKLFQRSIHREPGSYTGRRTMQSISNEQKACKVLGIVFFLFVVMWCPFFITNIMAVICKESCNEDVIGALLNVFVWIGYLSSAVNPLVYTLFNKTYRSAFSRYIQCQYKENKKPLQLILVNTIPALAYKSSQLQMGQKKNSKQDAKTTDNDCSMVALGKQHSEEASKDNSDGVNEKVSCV

[7] = molecular target: 5-HT2c (h) (Homo sapiens, UniProt P28335); test: Binding to membrane receptors of central neuromediators of human origin: 5-HT2c
Sequence of 5-HT2c (h) (P28335 33-458): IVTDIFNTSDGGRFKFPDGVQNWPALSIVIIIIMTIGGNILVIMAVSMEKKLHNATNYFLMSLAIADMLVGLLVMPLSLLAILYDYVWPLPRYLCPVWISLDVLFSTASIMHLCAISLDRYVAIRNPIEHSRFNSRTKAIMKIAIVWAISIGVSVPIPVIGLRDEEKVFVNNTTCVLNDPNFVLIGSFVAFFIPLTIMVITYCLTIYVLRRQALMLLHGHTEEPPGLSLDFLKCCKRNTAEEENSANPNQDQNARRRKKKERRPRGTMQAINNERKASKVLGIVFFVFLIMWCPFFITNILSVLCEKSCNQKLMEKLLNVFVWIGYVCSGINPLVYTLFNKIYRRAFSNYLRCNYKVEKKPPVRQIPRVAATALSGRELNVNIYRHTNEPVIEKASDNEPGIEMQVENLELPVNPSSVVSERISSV

[8] = molecular target: H1 (h) (Homo sapiens, UniProt P35367); test: Binding to membrane receptors of central neuromediators of human origin: H1; conditions: H1 (h) receptor binding
Sequence of H1 (h) (P35367 whole entry): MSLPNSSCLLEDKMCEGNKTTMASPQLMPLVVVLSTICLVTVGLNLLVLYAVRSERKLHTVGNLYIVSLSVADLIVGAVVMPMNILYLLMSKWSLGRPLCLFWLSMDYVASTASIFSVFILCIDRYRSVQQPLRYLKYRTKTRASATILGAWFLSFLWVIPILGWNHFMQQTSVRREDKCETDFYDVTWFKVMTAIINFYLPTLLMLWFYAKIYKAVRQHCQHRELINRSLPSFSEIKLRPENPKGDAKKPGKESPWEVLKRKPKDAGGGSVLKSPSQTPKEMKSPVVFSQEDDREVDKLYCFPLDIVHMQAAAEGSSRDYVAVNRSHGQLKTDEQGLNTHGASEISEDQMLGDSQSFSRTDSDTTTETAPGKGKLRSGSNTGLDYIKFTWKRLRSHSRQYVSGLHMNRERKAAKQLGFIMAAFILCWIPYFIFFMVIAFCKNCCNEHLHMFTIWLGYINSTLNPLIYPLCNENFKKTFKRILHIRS
Excerpt: as §1

[9] = test system: mice; test: Actimetry test (sedative activity, spontaneous motor activity); assay type: in vivo; conditions: spontaneous motor activity recorded for 10 minutes
Experimental: The sedative activity of the product was determined with mice according to an actimetry test. The actimeter is a device composed of 6 transparent cages in which the animals are individually placed. Photoelectric cells make it possible to detect movements in the cages (by cutting the beam). The spontaneous motor activity is recorded for 10 minutes. The results are expressed in the mean form and in the form of percentage of activity with respect to the control batch. The results are expressed in Table 2.

Sequence of D2 (h) (P14416 whole entry): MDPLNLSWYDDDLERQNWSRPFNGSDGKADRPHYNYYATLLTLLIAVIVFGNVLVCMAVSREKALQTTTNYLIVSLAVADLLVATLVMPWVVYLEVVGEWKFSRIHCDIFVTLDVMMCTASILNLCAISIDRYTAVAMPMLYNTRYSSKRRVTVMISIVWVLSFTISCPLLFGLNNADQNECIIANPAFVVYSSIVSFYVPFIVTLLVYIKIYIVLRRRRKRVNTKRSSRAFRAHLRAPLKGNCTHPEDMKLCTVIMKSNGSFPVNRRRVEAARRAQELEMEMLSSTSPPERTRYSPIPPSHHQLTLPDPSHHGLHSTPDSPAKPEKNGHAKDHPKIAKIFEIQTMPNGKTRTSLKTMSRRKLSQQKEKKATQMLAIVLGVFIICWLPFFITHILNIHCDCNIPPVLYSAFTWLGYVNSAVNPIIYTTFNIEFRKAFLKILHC

CNCC(C)CN1c2ccccc2Sc2ccc(C#N)cc21 (stereo not drawn) [2-cyano-10-(2-methyl-3-(methylamino)propyl)phenothiazine]
pIC50 [1]: 7.51 | pKi [1]: 7.92 | pIC50 [2]: 7.68 | pKi [2]: 7.77 | pIC50 [3]: 6.43 | pKi [3]: 6.60 | pIC50 [4]: 5.26 | pKi [4]: 5.41 | pIC50 [5]: 6.34 | pKi [5]: 6.74 | pIC50 [6]: 8.05 | pKi [6]: 8.82 | pIC50 ([7]; 5-HT2c (h) receptor binding): 7.64 | pKi ([7]; 5-HT2c (h) receptor binding): 8.07 | affinity for 5-HT2c receptors ([7]; in words): high affinity | pIC50 [8]: 7.66 | pKi [8]: 8.03 | % of activity/control ([9]; dose 0.75 mg/kg): 61% | % of activity/control ([9]; dose 1 mg/kg): 63% | % of activity/control ([9]; dose 2 mg/kg): 26% | % of activity/control ([9]; dose 4 mg/kg): 9%
